Data on 1 compound can be found in patent US9554979B2, “Hair care compositions and methods of use” (The Procter & Gamble Company, priority 2011, dated 2017).

A short description of data set [1]: Hansen Solubility Parameter fitting for apigenin (HSPiP). Conditions: fitted in HSPiP v. 3.1.06 from solubility scores in 32 solvents. Here is the method: HSPs and the solubility sphere for apigenin are optimized using the fitting method in the software HSPIP version 3.1.06 from Charles M. Hansen Consulting, Hørsholm, Denmark, hansen-solubility.com. Qualitative experimental solubilities for apigenin in 32 diverse potential solvents are determined using the scoring system at the bottom of Table 1. In the fitting function within HSPiP, solvents with scores of 1 and those with scores of 2-5 are categorized as “good” and “bad” solvents, respectively. […] Because the radius can be unbounded, fits with radii larger than 95% of the radius distribution are removed from these 50 trials (≦8.5 MPa^0.5). • 2. Determine the ranges for δD, δP, δH for the remaining fits. • 3. Locate the fit closest to this point using the Ra equation above. • 4. Chose the values for δD, δP, δH from Step 2 for the HSP's and the value of Ra from Step 3 for the radius.
Using this protocol, apigenin HSP values and solvent radius are determined to be δD=18.7, δP=13.5, δH=13.9 and Ra=6.8 (all in MPa^0.5). This sphere defines the initial region encompassing solvents into which apigenin will be soluble. (Note HSPiP v. 3.1.06 is used herein to determine all HSPs by 1) lookup if available within the program's internal database; 2) estimation if not in the database using the Y-MB method; or 3) via the procedure described above (apigenin only).)

The conditions of data set [2]: in water and nearly all solvents suitable for pharmaceutical, cosmetic, and food additive formulations (practically insoluble); cited from earlier work.

For `O=c1cc(-c2ccc(O)cc2)oc2cc(O)cc(O)c12` [apigenin, 5,7-dihydroxy-2-(4-hydroxyphenyl)-4H-1-benzopyran-4-one], in data set [1], the “HSP δD (dispersion-force component)” value is 18.7 MPa^0.5, the “HSP δH (hydrogen-bonding component)” value was 13.9 MPa^0.5, the “HSP δP (polar component)” value is recorded as 13.5 MPa^0.5 and the “solvent radius Ra” value amounted to 6.8 MPa^0.5. For the same compound, the solubility entry in data set [2] is on record as “less than 1 mg/ml”.
